According to US20230011869A1 (Hoffmann-La Roche Inc., priority 2018, published 2023):
Counter-ions that a name gives are not always drawn. Like-named read-outs stand apart in the source and are kept apart here.

Test system: Acinetobacter baumannii ATCC17978
Experiment: Antimicrobial susceptibility testing: 90% growth inhibitory concentration (IC90) determination, Iso-Sensitest broth
Assay type: cell-based
Summary of the method: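 A. baumannii ATCC17978 grown in Iso-Sensitest broth across 10 compound concentrations at 35±2 °C.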

[1] = 90% growth inhibitory concentration, Acinetobacter baumannii ATCC17978, Iso-Sensitest broth, OD 600 nm over 16 h, read-out: ATCC17978 IC90
[2] = Acinetobacter baumannii, ATCC17978, 16 h, read-out: ATCC17978 IC90, 90% growth inhibitory concentration, Acinetobacter baumannii ATCC17978, Iso-Sensitest broth, OD 600 nm over 16 h

IC90 [1] [nM]	SMILES	IC90 [2] [nM]
140	CNCC(=O)NCC1CCN(C(=O)c2ccc(Nc3nccn4c(-c5ccc(OCC#N)c(F)c5F)cnc34)cc2C)CC1 [Example 102, N-[[1-[4-[[3-[4-(cyanomethoxy)-2,3-difluoro-phenyl]imidazo[1,2-a]pyrazin-8-yl]amino]-2-methyl-benzoyl]-4-piperidyl]methyl]-2-(methylamino)acetamide]	–
150	COc1ccc(-c2cnc3c(Nc4ccc(C(=O)N5CCC(CNC(C)=O)CC5)c(C)c4)nccn23)cc1 [Example 103, N-((1-(4-((3-(4-methoxyphenyl)imidazo[1,2-a]pyrazin-8-yl)amino)-2-methylbenzoyl)piperidin-4-yl)methyl)acetamide]	–
–	COc1ccc(-c2cnc3c(Nc4ccc(C(=O)N5CCC(CN)CC5)c(C)c4)nccn23)c(Cl)c1F [Example 104, [4-(aminomethyl)-1-piperidyl]-[4-[[3-(2-chloro-3-fluoro-4-methoxy-phenyl)imidazo[1,2-a]pyrazin-8-yl]amino]-2-methyl-phenyl]methanone hydrochloride]	180
3600	Cc1cc(Nc2nccn3c(-c4ccc(OC(C)(C)C#N)c(F)c4F)cnc23)ccc1C(=O)N1CCC(CN)CC1 [Example 105, 2-[4-[8-[4-[4-(aminomethyl)piperidine-1-carbonyl]-3-methyl-anilino]imidazo[1,2-a]pyrazin-3-yl]-2,3-difluoro-phenoxy]-2-methyl-propanenitrile; formic acid]	–
250	COc1cc(F)c(-c2cnc3c(Nc4ccc(C(=O)N5CCC(CN)CC5)c(C)c4)nccn23)cc1F [Example 106, (4-(aminomethyl)piperidin-1-yl)(4-((3-(2,5-difluoro-4-methoxyphenyl)imidazo[1,2-a]pyrazin-8-yl)amino)-2-methylphenyl)methanone]	–
290	COc1cc(F)c(-c2cnc3c(Nc4ccc(C(=O)N5CCC(CN)CC5)c(C)c4)nccn23)cc1Cl [Example 107, (4-(aminomethyl)piperidin-1-yl)(4-((3-(5-chloro-2-fluoro-4-methoxyphenyl)imidazo[1,2-a]pyrazin-8-yl)amino)-2-methylphenyl)methanone]	–
1300	Cc1cc(Nc2nccn3c(-c4ccc(Cl)cc4Cl)cnc23)ccc1C(=O)N1CCC(CN)CC1 [Example 108, (4-(aminomethyl)piperidin-1-yl)(4-((3-(2,4-dichlorophenyl)imidazo[1,2-a]pyrazin-8-yl)amino)-2-methylphenyl)methanone]	–
510	COc1ccc(-c2cnc3c(Nc4ccc(C(=O)N5CCC(CN)CC5)c(C)c4)nccn23)c(Cl)c1 [Example 109, (4-(aminomethyl)piperidin-1-yl)(4-((3-(2-chloro-4-methoxyphenyl)imidazo[1,2-a]pyrazin-8-yl)amino)-2-methylphenyl)methanone]	–
420	CCOc1ccc(-c2cnc3c(Nc4ccc(C(=O)N5CCC(CN)CC5)c(C)c4)nccn23)c(F)c1Cl [Example 110, (4-(aminomethyl)piperidin-1-yl)(4-((3-(3-chloro-4-ethoxy-2-fluorophenyl)imidazo[1,2-a]pyrazin-8-yl)amino)-2-methylphenyl)methanone formate]	–
4100	Cc1cc(Nc2nccn3c(-c4cc(F)c(F)c(F)c4)cnc23)ccc1C(=O)N1CCC(CN)CC1 [Example 111, (4-(aminomethyl)piperidin-1-yl)(2-methyl-4-((3-(3,4,5-trifluorophenyl)imidazo[1,2-a]pyrazin-8-yl)amino)phenyl)methanone]	–
180	CNCCNC(=O)C1CCN(C(=O)c2ccc(Nc3nccn4c(-c5ccc(OC)c(Cl)c5)cnc34)cc2C)CC1 [Example 112, 1-(4-((3-(3-chloro-4-methoxyphenyl)imidazo[1,2-a]pyrazin-8-yl)amino)-2-methylbenzoyl)-N-(2-(methylamino)ethyl)piperidine-4-carboxamide hydrochloride]	–
280	COc1ccc(-c2cnc3c(Nc4ccc(C(=O)N5CCC(CN)CC5)c(C)c4)nccn23)c(Cl)c1Cl [Example 113, [4-(aminomethyl)-1-piperidyl]-[4-[[3-(2,3-dichloro-4-methoxy-phenyl)imidazo[1,2-a]pyrazin-8-yl]amino]-2-methyl-phenyl]methanone formate]	–
410	Cc1cc(Nc2nccn3c(-c4ccc(OCC5CC5C#N)c(F)c4F)cnc23)ccc1C(=O)N1CCC(CN)CC1 (stereo not shown) [Example 114, 2-[[4-[8-[4-[4-(aminomethyl)piperidine-1-carbonyl]-3-methyl-anilino]imidazo[1,2-a]pyrazin-3-yl]-2,3-difluoro-phenoxy]methyl]cyclopropanecarbonitrile formate]	–
400	Cc1cc(Nc2nccn3c(-c4ccc(OC5(C#N)CC5)c(F)c4F)cnc23)ccc1C(=O)N1CCC(CN)CC1 [Example 115, 1-[4-[8-[4-[4-(aminomethyl)piperidine-1-carbonyl]-3-methyl-anilino]imidazo[1,2-a]pyrazin-3-yl]-2,3-difluoro-phenoxy]cyclopropanecarbonitrile formate]	–
500	CSc1ccc(-c2cnc3c(Nc4ccc(C(=O)N5CCC(CN)CC5)c(C)c4)nccn23)cc1F [Example 116, [4-(aminomethyl)-1-piperidyl]-[4-[[3-(3-fluoro-4-methylsulfanyl-phenyl)imidazo[1,2-a]pyrazin-8-yl]amino]-2-methyl-phenyl]methanone formate]	–
540	Cc1cc(Nc2nccn3c(-c4ccc(OC5CC5)c(Cl)c4)cnc23)ccc1C(=O)N1CCC(CN)CC1 [Example 117, [4-(aminomethyl)-1-piperidyl]-[4-[[3-[3-chloro-4-(cyclopropoxy)phenyl]imidazo[1,2-a]pyrazin-8-yl]amino]-2-methyl-phenyl]methanone formate]	–
940	Cc1cc(Nc2nccn3c(-c4ccc(OCC5CC5)c(F)c4)cnc23)ccc1C(=O)N1CCC(CN)CC1 [Example 118, (4-(aminomethyl)piperidin-1-yl)(4-((3-(4-(cyclopropylmethoxy)-3-fluorophenyl)imidazo[1,2-a]pyrazin-8-yl)amino)-2-methylphenyl)methanone]	–
400	Cc1cc(Nc2nccn3c(-c4ccc(OC(C)C#N)c(F)c4F)cnc23)ccc1C(=O)N1CCC(CN)CC1 (stereo not shown) [Example 119, 2-[4-[8-[4-[4-(aminomethyl)piperidine-1-carbonyl]-3-methyl-anilino]imidazo[1,2-a]pyrazin-3-yl]-2,3-difluoro-phenoxy]propanenitrile;2,2,2-trifluoroacetic acid]	–
1000	Cc1cc(Nc2nccn3c(-c4ccc(OCCCC#N)c(F)c4F)cnc23)ccc1C(=O)N1CCC(CN)CC1 [Example 120, 4-(4-(8-((4-(4-(aminomethyl)piperidine-1-carbonyl)-3-methylphenyl)amino)imidazo[1,2-a]pyrazin-3-yl)-2,3-difluorophenoxy)butanenitrile]	–
320	Cc1cc(Nc2nccn3c(-c4ccc(Oc5ccccn5)c(F)c4F)cnc23)ccc1C(=O)N1CCC(CN)CC1 [Example 122, [4-(aminomethyl)-1-piperidyl]-[4-[[3-[2,3-difluoro-4-(2-pyridyloxy)phenyl]imidazo[1,2-a]pyrazin-8-yl]amino]-2-methyl-phenyl]methanone formate]	–
760	Cc1cc(Nc2nccn3c(-c4ccc(Oc5ccncc5)c(F)c4F)cnc23)ccc1C(=O)N1CCC(CN)CC1 [Example 123, [4-(aminomethyl)-1-piperidyl]-[4-[[3-[2,3-difluoro-4-(4-pyridyloxy)phenyl]imidazo[1,2-a]pyrazin-8-yl]amino]-2-methyl-phenyl]methanone]	–
900	Cc1cc(Nc2nccn3c(-c4ccc(OCc5cccnc5)c(F)c4F)cnc23)ccc1C(=O)N1CCC(CN)CC1 [Example 124, [4-(aminomethyl)-1-piperidyl]-[4-[[3-[2,3-difluoro-4-(3-pyridylmethoxy)phenyl]imidazo[1,2-a]pyrazin-8-yl]amino]-2-methyl-phenyl]methanone formate]	–
1700	Cc1cc(Nc2nccn3c(-c4ccc(OCc5ccccn5)c(F)c4F)cnc23)ccc1C(=O)N1CCC(CN)CC1 [Example 125, [4-(aminomethyl)-1-piperidyl]-[4-[[3-[2,3-difluoro-4-(2-pyridylmethoxy)phenyl]imidazo[1,2-a]pyrazin-8-yl]amino]-2-methyl-phenyl]methanone; formic acid]	–
3600	Cc1cc(Nc2nccn3c(-c4ccc(OCc5ccccc5)c(F)c4F)cnc23)ccc1C(=O)N1CCC(CN)CC1 [Example 126, [4-(aminomethyl)-1-piperidyl]-[4-[[3-(4-benzyloxy-2,3-difluoro-phenyl)imidazo[1,2-a]pyrazin-8-yl]amino]-2-methyl-phenyl]methanone formate]	–
910	Cc1cc(Nc2nccn3c(-c4ccc(OCc5ccncc5)c(F)c4F)cnc23)ccc1C(=O)N1CCC(CN)CC1 [Example 127, [4-(aminomethyl)-1-piperidyl]-[4-[[3-[2,3-difluoro-4-(4-pyridylmethoxy)phenyl]imidazo[1,2-a]pyrazin-8-yl]amino]-2-methyl-phenyl]methanone formate]	–
–	Cc1cc(Nc2nccn3c(-c4ccc(OC(F)F)cc4)cnc23)ccc1C(=O)N1CCN(C(=O)N2CCN(C)CC2)CC1 [Example 128, [4-[[3-[4-(difluoromethoxy)phenyl]imidazo[1,2-a]pyrazin-8-yl]amino]-2-methyl-phenyl]-[4-(4-methylpiperazine-1-carbonyl)piperazin-1-yl]methanone formate]	190
910	Cc1cc(Nc2nccn3c(-c4ccc(OC(F)F)cc4)cnc23)ccc1C(=O)N1CCNCC1 [Example 129, [4-[[3-[4-(difluoromethoxy)phenyl]imidazo[1,2-a]pyrazin-8-yl]amino]-2-methyl-phenyl]-piperazin-1-yl-methanone hydrochloride]	–
430	COc1ccc(-c2cnc3c(Nc4ccc(C(=O)N5CCNCC5)c(C)c4)nccn23)cc1F [Example 130, [4-[[3-(3-fluoro-4-methoxy-phenyl)imidazo[1,2-a]pyrazin-8-yl]amino]-2-methyl-phenyl]-piperazin-1-yl-methanone hydrochloride]	–
